The source of these data is patent publication US4983596A, “3-pyrrolidinylthio-1-azabicyclo[3.2.0]-hept-2-ene-2-carboxylic acid derivatives and their preparation” (Fujisawa Pharmaceutical Company, Ltd., priority 1988, dated 1991).

Converted amounts (≈) assume the structure as drawn.

The test system of this assay is P. aeruginosa 26. The experiment in a line: in vitro Antimicrobial Activity, two-fold agar-plate dilution method (MIC). It counts as cell-based. The following applies: Pseudomonas aeruginosa; Test strain P. aeruginosa 26; heart infusion agar; 10^6 viable cells per ml; incubation at 37° C. for 20 hours; read-out: MIC (minimal inhibitory concentration). As for the experimental part:
in vitro Antimicrobial Activity
in vitro Antimicrobial Activity was determined by the two-fold agar-plate dilution method as described blow. […]
The product of Example (2-1).

As to `C[C@@H](O)[C@H]1C(=O)N2C(C(=O)O)=C(S[C@@H]3CN[C@H](COCCF)C3)[C@H](C)[C@H]12` [Example (2-1), (4R,5S,6S)-3-[(2S,4S)-2-(2-fluoroethyloxymethyl)pyrrolidin-4-yl]thio-6-[(1R)-1-hydroxyethyl]-4-methyl-7-oxo-1-azabicyclo[3.2.0]hept-2-ene-2-carboxylic acid], the MIC is 0.39 µg/mL (≈ 1 µM).
